One series deals with MPTP-mice. Description: MPTP mouse model of Parkinson's disease. The settings on record: 10 nmol once-a-day, day -7 to day 10 after MPTP. It is filed as in vivo. As for the experimental part: In the MPTP model, the bilateral dopaminergic neuronal death of the substantia nigra and dopamine depletion of the striatum is created by i.p. injection of MPTP. Experimental groups:
• Group 1: 10 Sham-mice treated with vehicle (10 ml/kg) once-a-day starting day-7 and continuing until the end of the study day 10 • Group 2: 10 MPTP-mice treated with vehicle (10 ml/kg) once-a-day starting day-7 and continuing until the end of the study day 10 • Group 3: 10 MPTP-mice treated with Ghrelin SplicVariant (10 nmol) once-a-day starting day-7 and continuing until the end of the study day 10 Ghrelin Splice Variant or vehicle was administered once-a-day immediately before the dark phase, and […] were removed overnight starting seven days prior to MPTP challenge and continued until end-point day 10 after MPTP. Striatal levels of dopamine (DA), […] (DOPAC) and homovanillic acid (HVA) are evaluated 10 days after the injection of MPTP with HPLC. In addition, the selective damage to dopaminergic neurons in the SNc is evaluated with tyrosine hydroxylase (TH) immunoreactivity. Food intake and body weight were monitored daily in all mice administered Ghrelin Splice Variant.

The nature of series [1]: Pharmacokinetics after subcutaneous administration, plasma LC/MS/MS. The settings on record: Sprague-Dawley, rat; for half-life: across dose groups; for AUC / AUC(0-inf): SC; for AUC: high dose (10 mg/kg). It is filed as in vivo, Sprague-Dawley rats. How it is done:
Subcutaneous administration of ghrelin splice variants was performed at three dose levels of 0.5, 2.5 and 10 mg/kg corresponding to concentrations of 0.1, 0.5 and 2 mg/ml, respectively, and at a constant volume dosage of 5 ml/kg. Intravenous injection was performed at one dose level of 0.5 mg/kg corresponding to a concentration of 0.1 mg/ml and a constant volume dosage of 5 ml/kg as well. The study comprised 9 male and 9 female Sprague-Dawley™ (SD™) rats per dose level and route of administration.
Bleeding sampling design was confined to 9 bleeding time points for each dose level: pre-dosing, 5, 15, 30, 60 and 90 min, 3, 5 and 24 hrs, post-dosing. Each group was divided into 3 sub-groups, each being assigned 3 specific bleeding time points, in order to receive 3 individual samples/time point/group (total of 27 individual samples/group). […] Whole blood samples were kept on ice from the time of blood collection until the time of centrifugation. The obtained plasma samples were flash frozen in liquid nitrogen and kept on dry ice until removal to −70° C.
Concentrations of the Test Item in plasma were determined by LC/MS/MS (liquid chromatography/mass spectrometry/mass spectrometry). Pharmacokinetic analysis of Ghrelin Splice Variant was based on mean plasma concentration time profiles for each dose group as obtained by Non-compartmental Pharmacokinetic analysis, generated by the use of the computer software: “PK Solutions 2.0” (Summit Research Services, Colo., USA).

The subject of series [2] is C57Bl/6 mice primary cell culture. Description: Trypan blue cell viability assay, protection against H2O2-induced cell death. The settings on record: for protective action against the damages produced by H2O2 in terms of cell viability: 50 μM H2O2 plus 1 μM peptide, compared to negative control (H2O2). The series is classed as cell-based. As for the experimental part:
The protective effects of ghrelin splice variant against induced cell death, cell viability, of C57Bl/6 mice primary cell culture, was analysed by trypan blue assay, an indirect method based on the dye exclusion of live cells with intact cell membrane.
Cells were treated with 50 μM H2O2 to induce cell damages and death. The neuroprotective effect of ghrelin splice variant was tested by treating the cells with either H2O2 plus 1 μM ghrelin splice variant, H2O2 plus 1 μM ghrelin or H2O2 plus both peptides. Controls samples were untreated cells.

Series [3] concerns SNpc DA neurons. Put plainly: Patch clamp (whole-cell current clamp) recordings of action potentials in brain slices, bath application. It is filed as cell-based, mice. The settings on record: 1 μM. How it is done: Brain slices preparation: Brain slices (300 µm) containing the SN, will be cut on a vibratome from 4-6 week old males (n=10 per group). Briefly, animals will be anesthetized with Nembutal (80 mg/kg) and then decapitated. The brains will be rapidly removed and immersed in cold […] oxygenated bath solution (containing (mM): NaCl 150, KCl 2.5, CaCl2 2, MgCl2 2 Hepes 10, and glucose […] with NaOH). After being trimmed to contain only the SN, slices will be transferred to a recording chamber where they are constantly perfused with bath solution at 2 ml/min. DA neurons in the SN are identified by presence of a large Ih current (>100 pA) evoked by hyperpolarizing voltage steps from −50 to −120 mV for 2 s (22). This approach identifies dopaminergic cells with >90% accuracy. In brain slices, whole-cell current clamp will be used to observe spontaneous action potentials. Slices will be maintained at 330 C and perfused continuously with ASCF (bubbled with 5% CO2 and 95% O2) containing (in mM): NaCl, 124; KCl, 3; CaCl2, 2; MgCl2, 2; NaH2PO4, 1.23; NaHCO3, 26; glucose, 10; pH 7.4 with NaOH. Ghrelin Splice Variant will be applied to the recording chamber via bath application.The pipette solution containes (mM): Gluconic Acid 140, CaCl2, MgCl2 2, EGTA 1, HEPES 10, Mg-ATP 4, and Na2-GTP 0.5, pH 7.3 with KOH. To further explore the mechanism of Ghrelin Splice Variant-mediated effect on action potentials in DA neurons, we will analyze the effect of Ghrelin Splice Variant on action potential frequency either in the presence of ionotropic glutamate receptor antagonists CNQX (10 µM) and APS (50 µM) in all solutions, or in the presence of bicuculine (30 µM; to block diminish GABA effects) in all solutions. Analysis: All data will be sampled at 3-10 kHz and […] at 1-3 kHz with an Apple Macintosh computer using Axograph 4.9 (Axon Instruments). Electrophysiological data will be analyzed with Axograph 4.9 (Axon Instruments) and plotted with Igor Pro software (WaveMetrics, Lake Oswego, Oreg., USA). To complement, the electron microscopic measurements of synapses, we will also analyze mEPSC and mIPSC of SN DA neurons. Mice (C57BL/J6; n=10) between the ages of 4-6 weeks of age will be injected with Ghrelin Splice Variant (30 μg in 0.3 ml) or vehicle ip at 09:00 hrs. Two hours later, animals will be sacrificed under neinbutal anesthesia and their brains collected as described above. For the recording of mEPSCs and IPSCs, SN DA cells will be patched with pipettes with a tip resistance of 4-6 MΩ and partially compensated by the amplifier. The pipette will be filled with a solution containing the following (mM): KMeSO, 145 (mEPSC) or KCL, 145 (mIPSC); MgCl2, 2; HEPES, 10; Mg-ATP, 2.; Nat-GTP, 0.3; and KOH to adjust pH to 7.3. mEPSC recordings will be achieved under the prescence of TTX and bicucullin, whereas mIPSC will be monitored under the presence of TTX, AP5 and CNQX. The frequency and amplitude of mEPSC and IPSC will be recorded as described previously. Differences in the frequency of mEPSCs and mIPSCs of DA cells from Ghrelin Splice Variant and saline treated animals will be compared using unpaired t-tests with the critical level set at α=0.05). […] N=number of cells recorded.
(In general: In patch-clamp work, channel activity is measured electrically.)

Another series deals with growth hormone. Put plainly: GH release after subcutaneous bolus injection (growth hormone ELISA). It is filed as in vivo, mice. Conditions: 20 μg subcutaneous bolus; 10 minutes after administration. As for the experimental part: Acylated ghrelin splice variants (20 μg) or the Vehicle (1.6% mannitol) were administered by a subcutaneous bolus injection (Corresponding to 0.3 μmol/kg) to 5 mice each. Blood was sampled 10 and 20 min after injection. Serum samples were stored at −70° C. and analyzed by the RAT/MOUSE GROWTH HORMONE ELISA KIT 96-Well Plate (Cat. EZRMGH-45K) (Millipore Corporation, Billerica, Mass., USA). Results: The serum […] growth hormone concentration 10 minutes after subcutaneous administration of acylated ghrelin splice variant or the Vehicle was 2-14-fold higher in the ghrelin splice variant group in comparison to the vehicle group.

The subject of series [4] is SNpc DA neurons. Put plainly: mEPSC recordings in GHSR1a knockout mice and their WT littermates. The series is classed as cell-based. The settings on record: 1 μM, in presence of TTX and bicuculline.
The next series has as its system SN DA neurons. Description: mEPSC and mIPSC recordings of SN DA neurons after treatment of WT mice. The settings on record: compared with saline control, n=6 cells. It is filed as in vivo. How it is done:
Brain slices preparation: Brain slices (300 µm) containing the SN, will be cut on a vibratome from 4-6 week old males (n=10 per group). Briefly, animals will be anesthetized with Nembutal (80 mg/kg) and then decapitated. The brains will be rapidly removed and immersed in cold […] oxygenated bath solution (containing (mM): NaCl 150, KCl 2.5, CaCl2 2, MgCl2 2 Hepes 10, and glucose […] with NaOH). After being trimmed to contain only the SN, slices will be transferred to a recording chamber where they are constantly perfused with bath solution at 2 ml/min. DA neurons in the SN are identified by presence of a large Ih current (>100 pA) evoked by hyperpolarizing voltage steps from −50 to −120 mV for 2 s (22). This approach identifies dopaminergic cells with >90% accuracy. […] Electrophysiological data will be analyzed with Axograph 4.9 (Axon Instruments) and plotted with Igor Pro software (WaveMetrics, Lake Oswego, Oreg., USA). […] The pipette will be filled with a solution containing the following (mM): KMeSO, 145 (mEPSC) or KCL, 145 (mIPSC); MgCl2, 2; HEPES, 10; Mg-ATP, 2.; Nat-GTP, 0.3; and KOH to adjust pH to 7.3. mEPSC recordings will be achieved under the prescence of TTX and bicucullin, whereas mIPSC will be monitored under the presence of TTX, AP5 and CNQX. The frequency and amplitude of mEPSC and IPSC will be recorded as described previously. […] N=number of cells recorded.

For series [5] the following is noted: cited from earlier work.
Where [6] appears, read: listed as Ghrelin splice variant.

Entries after “also recorded” stand apart in the source; their conditions may differ. Where a SMILES comes first, the peptide text is derived from it. Where no end group is shown, it is not given here. The star is where a group is joined. Octanoyl = CCCCCCCC(=O)*

Usually half-life stands for the time in which the quantity being followed falls by half. What is called Tmax is the time from dosing to the highest level. As a reminder, the AUC is concentration integrated over time. Read a low AUC as less exposure. The term AUC(0-inf) denotes total exposure, with the tail of the curve extrapolated. Consider `CCCCCCCC(=O)OC[C@H](NC(=O)[C@H](CO)NC(=O)CN)C(=O)N[C@@H](Cc1ccccc1)C(=O)N[C@@H](CC(C)C)C(=O)N[C@@H](CO)C(=O)N1CCC[C@H]1C(=O)N[C@@H](CCC(=O)O)C(=O)N[C@@H](Cc1c[nH]cn1)C(=O)N[C@@H](CCC(N)=O)C(=O)N[C@@H](CCCNC(=N)N)C(=O)N[C@H](C(=O)N[C@@H](CCC(N)=O)C(=O)N[C@H](C(=O)N[C@@H](CCCNC(=N)N)C(=O)N1CCC[C@H]1C(=O)N1CCC[C@H]1C(=O)N[C@@H](Cc1c[nH]cn1)C(=O)N[C@@H](CCCCN)C(=O)N[C@@H](C)C(=O)N1CCC[C@H]1C(=O)N[C@@H](Cc1c[nH]cn1)C(=O)O)C(C)C)C(C)C` [Ghrelin Splice Variant] (H-GSS(Octanoyl)FLSPEHQRVQVRPPHKAPH-OH), for which the “MPTP-induced nigrostriatal DA damage (loss of DA neurons)” value in the series with MPTP-mice is “attenuates MPTP-induced nigrostriatal PA damage”. Moreover, the “cumulative weight gain / recovery after MPTP treatment” value in the series with MPTP-mice was “managed to recover after the MPTP treatment”. Further, the half-life in series [1] (subcutaneous, female rats) is 10.7 to 28.9 min; in series [1] (subcutaneous, male rats) it was 17.4 to 26.4 min. Besides, the Tmax in series [1] (both sexes, subcutaneous, post-dosing, all dose groups) was 5 min. Also, the AUC in series [1] (female, females) is 818 ng·h/mL; in series [1] (male, males) it was 1320 ng·h/mL. Further, the AUC(0-inf) is 86.7 ng·h/mL in series [1] (female, low dose (0.5 mg/kg), females); 347 ng·h/mL in series [1] (female, mid dose (2.5 mg/kg), females); 102 ng·h/mL in series [1] (male, low dose (0.5 mg/kg), males); 313 ng·h/mL in series [1] (male, mid dose (2.5 mg/kg), males). Also, the “protective action against the damages produced by H2O2 in terms of cell viability” value is given as “effective protective action” in series [2] (setting [6]) and “statistically significant effective protective action; also recorded: greater than ghrelin treatment” in series [2] (listed as ghrelin splice variant). In addition, the action potential firing result is recorded as “increment in AP firing” with SNpc DA neurons [3] and “increment in action potential firing” in the series on SNpc DA neurons [3] (setting [6]). Further, the depolarization entry in the series on SNpc DA neurons [3] is listed as “about 10 mV”. Further, the “duration of effect after washout” value is 20 min with SNpc DA neurons [3] and “at least 20 minutes” with SNpc DA neurons [3] (setting [6]). Further, the “serum and brain growth hormone concentration in comparison to the vehicle group” value in the series on growth hormone is listed as 2-14 fold. Moreover, the mEPSC frequency with SNpc DA neurons [4] (GHSR1a knockout mice, n=9 cells) is 27.3+/−2.8 per min; in the series on SNpc DA neurons [4] (WT animals, n=31 cells), 98.1+/−24.7 per min. In addition, the “frequency of mEPSCs” value with SN DA neurons is given as 67.2 ± 3.1. In the series with SN DA neurons, the “frequency of mIPSCs” value came out at 60.5 ± 8.9.
With `OO` [H2O2, reference compound], the cell survival in series [2] (50 μM H2O2 alone) came out at 50%.
Turning to “Ghrelin: 28 amino acid peptide bearing an n-octanoyl side chain on the third serine (GSS(Octanoyl)FLSPEHQRVQQRKESKKPPAKLQPR; UniProt Q9UBU3 24-51, looked up) [reference compound]”, the “increase of food intake” value in series [5] (infusion for 90 minutes, cancer cachexia patients) is on record as 30%. In series [5] (subcutaneous injection of 3.6 nmol/kg prior to a meal), the “increase of energy intake” value is reported as 27%. Besides, the “protective action against the damages produced by H2O2 in terms of cell viability” value is listed as “statistically significant” in series [2] and “statistically significant effective protective action” in series [2] (listed as ghrelin).

Values taken from patent publication US10526383B2, “Ghrelin splice variant for treating neuronal damage, neurodegenerative disease, parkinsons disease, alzheimers disease, and/or depression” (priority 2013, dated 2020).
